Three compounds from patent US20140299020A1, “WATER-BASED BLACK INK COMPOSITION, INKJET RECORDING METHOD USING SAME, AND COLORED BODY” (NIPPON KAYAKU KABUSHIKI KAISHA, priority 2011, published 2014) can be followed below.

The data set is described as follows: Solubility with respect to water at room temperature. Conditions: lithium salt. Type of data set: physicochemical.

In the case of `Cc1cc(N=Nc2c(S(=O)(=O)O)cc3c(S(=O)(=O)O)c(N=Nc4cc(S(=O)(=O)O)c5cc(S(=O)(=O)O)c(N=Nc6ccc([N+](=O)[O-])cc6S(=O)(=O)O)c(O)c5c4N)ccc3c2O)c(OCCCS(=O)(=O)O)cc1N=Nc1ccc([N+](=O)[O-])cc1S(=O)(=O)O` [Compound 16], the solubility (usually how much of the substance goes into solution per volume) is at least 100 mg/mL.

With `Nc1c(N=Nc2ccc3c(O)c(N=Nc4ccc(N=Nc5ccc(S(=O)(=O)O)cc5)cc4S(=O)(=O)O)c(S(=O)(=O)O)cc3c2S(=O)(=O)O)cc(S(=O)(=O)O)c2cc(S(=O)(=O)O)c(N=Nc3ccc([N+](=O)[O-])cc3S(=O)(=O)O)c(O)c12` [Compound 1], the solubility was at least 100 mg/mL. With `Nc1c(N=Nc2ccc3c(O)c(N=Nc4ccc(N=Nc5ccc(S(=O)(=O)O)cc5)cc4S(=O)(=O)O)c(S(=O)(=O)O)cc3c2S(=O)(=O)O)cc(S(=O)(=O)O)c2cc(S(=O)(=O)O)c(N=Nc3ccc(S(=O)(=O)O)cc3[N+](=O)[O-])c(O)c12` [Compound 3] the figure was at least 100 mg/mL.
